Molecular target: T1, SaCSD1 (Sonneratia alba, UniProt A0A0U1X631)
T1 construct: gene SOD1
T1 sequence (A0A0U1X631 1-152): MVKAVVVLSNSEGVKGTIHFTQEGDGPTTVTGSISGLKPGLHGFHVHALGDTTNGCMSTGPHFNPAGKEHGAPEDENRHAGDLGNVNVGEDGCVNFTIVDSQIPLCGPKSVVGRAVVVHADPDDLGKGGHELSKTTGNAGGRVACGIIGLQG
Experiment: SOD activity assay kit (WST-1 method)
Assay type: biochemical

[O]O [superoxide] was tested, and the “SOD activity assay kit (WST-1 method)” value was “Superoxide dismutase activity assay kit (WST-1 method) was used to detect the SOD activity”.

From article PMC4730251, “Cloning, Characterization and Expression Pattern Analysis of a Cytosolic Copper/Zinc Superoxide Dismutase (SaCSD1) in a Highly Salt Tolerant Mangrove (Sonneratia alba)” (International Journal of Molecular Sciences, 2015)
